Data taken from patent US20120196899A1, “METHODS AND PRODUCTS FOR TREATING INFLAMMATION” (Rock Creek Pharmaceuticals, Inc., priority 2010, published 2012).
“And” between values parts separate entries of the source, which are not always exact repeats. Equal entries are not always repeated. Where two headings read alike, the source gives them in different places.

Test: Plasma pharmacokinetics after oral multi-dose anatabine polacrilex
Type: in vivo, Sprague-Dawley rats
Conditions: for Anatabine Concentration in rat plasma: dose 2 mg/kg; for Avg. Conc. of anatabine in plasma: dose group 2, female; for concentration at 30 min / concentration at 60 min / concentration at 235 min / concentration at 270 min / concentration at 300 min / concentration at 475 min / concentration at 540 min / concentration at 600 min / concentration at 720 min / Tmax / half-life: Sprague-Dawley, rat, plasma; for concentration at 30 min / concentration at 60 min / concentration at 235 min / concentration at 270 min / concentration at 300 min / concentration at 475 min / concentration at 540 min / concentration at 600 min / concentration at 720 min: oral; for Tmax / half-life: po; for half-life: mean
Description: This study consisted of two groups of 8 animals each, 4 males and 4 females.
Two formulations were prepared; one for each of the two treatment groups. The test compound was formulated for each treatment group just prior to the first dose administration and constantly stirred until dosing was completed (Table 37). Four aliquots of each dose level formulation were collected and stored at −80° C.
The animals were weighed prior to dosing and received three doses p.o. of test compound at a volume of 5 mL/kg. Blood was collected via the venus plexus (retro-orbital) into tubes containing (K2) EDTA. No more than 0.5 mL was collected per time point.
Plasma was separated as per package instructions for MICROTAINER® brand collection tubes (3 minutes, 2000×g). Plasma was decanted into microfuge tubes and stored at −80° C. Remaining test compound was placed at −80° C.
Sample preparation. Plasma samples were treated with three volumes of methanol containing internal standard at 1 μM (R,S)-Antabine-2,4,5,6-d4), incubated 10 min at 4° C., and centrifuged. The amount of the test agent in the supernatant was determined by LC/MS/MS.
Analysis. Samples were analyzed by LC/MS/MS using an Agilent 6410 mass spectrometer coupled with an Agilent 1200 high pressure liquid chromatography (HPLC) and a CTC PAL chilled autosampler, all controlled by MassHunter software (Agilent). After separation on a Hydrophilic interaction liquid chromatography (HILIC) HPLC column (Sepax) using an acetonitrile-ammonium acetate/acetic acid gradient system, peaks were analyzed by mass spectrometry (MS) using ESI ionization in multiple reaction monitoring (MRM) mode. MassHunter software was used to calculate the concentration of the test compounds in samples from the peak area using the appropriate calibration curves.
Calibration samples. Calibration curves were determined in rat plasma. Calibration samples were prepared by diluting a 50× stock solution of the test compound in PBS with blank matrix to the appropriate concentration and these samples were prepared as described above in the sample preparation.
Data Analysis. Descriptive statistics were calculated for all pharmacokinetic parameters. Elimination half-lives (t1/2) were calculated by linear regression of logarithmically transformed plasma concentration data for each period between doses and following the final dose.
Total areas under the plasma concentration curves (AUC) and under the first moment curves (AUMC) were calculated using linear trapezoidal summation across all concentration time points as well as for intervals between each dose administration and following the final dose. […] Mean absorption times (MAT) were calculated according to the following relation: […]
where MRT represents the mean residence time. This was calculated from the mean residence times.
The statistical comparison of parameters between male and female animals was made using a two-tailed, unpaired, t-test with a 95 percent confidence interval. Repeated-measures analysis of variance (ANOVA) was used for multiple comparisons of Cp, max involving successive determinations on the same group of animals.

[1] = females, 6.0 mg/kg BW group, anatabine polacrilex p.o.

Compound: C1=CCC(c2cccnc2)NC1 (racemic) [Anatabine, 1,2,3,6-tetrahydro-[2,3′]bipyridinyl]
- Anatabine Concentration in rat plasma (female, 270 min, individual animals 4A-4D): 324 ng/mL and 350 ng/mL
- Anatabine Concentration in rat plasma (female, 300 min, individual animals 4A-4D): 216 ng/mL and 97 ng/mL and 191 ng/mL and 414 ng/mL
- Anatabine Concentration in rat plasma (female, 475 min, individual animals 4A-4D): 219 ng/mL and 178 ng/mL and 179 ng/mL
- Anatabine Concentration in rat plasma (female, 540 min, individual animals 4A-4D): 231 ng/mL and 314 ng/mL and 369 ng/mL and 474 ng/mL
- Anatabine Concentration in rat plasma (female, 600 min, individual animals 4A-4D): 197 ng/mL and 207 ng/mL and 480 ng/mL and 288 ng/mL
- Anatabine Concentration in rat plasma (female, 720 min, individual animals 4A-4D): 165 ng/mL and 217 ng/mL
- Anatabine Concentration in rat plasma (male, 235 min, individual animals 3A-3D): 46 ng/mL and 63 ng/mL and 105 ng/mL
- Anatabine Concentration in rat plasma (male, 270 min, individual animals 3A-3D): 364 ng/mL and 309 ng/mL
- Anatabine Concentration in rat plasma (male, 300 min, individual animals 3A-3D): 232 ng/mL and 202 ng/mL
- Anatabine Concentration in rat plasma (male, 475 min, individual animals 3A-3D): 97 ng/mL
- Anatabine Concentration in rat plasma (male, 540 min, individual animals 3A-3D): 290 ng/mL and 173 ng/mL
- Anatabine Concentration in rat plasma (male, 600 min, individual animals 3A-3D): 173 ng/mL and 130 ng/mL and 150 ng/mL
- Anatabine Concentration in rat plasma (male, 720 min, individual animals 3A-3D): 401 ng/mL and 137 ng/mL and 71 ng/mL
- Avg. Conc. of anatabine in plasma (30 min): 160 ng/mL
- Avg. Conc. of anatabine in plasma (60 min): 129 ng/mL
- Avg. Conc. of anatabine in plasma (235 min): 44 ng/mL
- Avg. Conc. of anatabine in plasma (270 min): 316 ng/mL
- Avg. Conc. of anatabine in plasma (300 min): 234 ng/mL
- Avg. Conc. of anatabine in plasma (540 min): 386 ng/mL
- Avg. Conc. of anatabine in plasma (600 min): 325 ng/mL
- Avg. Conc. of anatabine in plasma (720 min): 208 ng/mL
- concentration at 30 min (female, 0.2 mg/kg BW, Avg. Conc. of anatabine in plasma, dose group 0.2, female, 30 min): 37 ng/mL
- concentration at 60 min (female, 0.2 mg/kg BW, Avg. Conc. of anatabine in plasma, dose group 0.2, female, 60 min): 35 ng/mL
- concentration at 235 min (female, 0.2 mg/kg BW, Avg. Conc. of anatabine in plasma, dose group 0.2, female, 235 min): 12 ng/mL
- concentration at 270 min (female, 0.2 mg/kg BW, Avg. Conc. of anatabine in plasma, dose group 0.2, female, 270 min): 26 ng/mL
- concentration at 300 min (female, 0.2 mg/kg BW, Avg. Conc. of anatabine in plasma, dose group 0.2, female, 300 min): 34 ng/mL
- concentration at 475 min (female, 0.2 mg/kg BW, Avg. Conc. of anatabine in plasma, dose group 0.2, female, 475 min): 8 ng/mL
- concentration at 540 min (female, 0.2 mg/kg BW, Avg. Conc. of anatabine in plasma, dose group 0.2, female, 540 min): 34 ng/mL
- concentration at 600 min (female, 0.2 mg/kg BW, Avg. Conc. of anatabine in plasma, dose group 0.2, female, 600 min): 28 ng/mL
- concentration at 720 min (female, 0.2 mg/kg BW, Avg. Conc. of anatabine in plasma, dose group 0.2, female, 720 min): 12 ng/mL
- concentration at 30 min (female, 0.2 mg/kg, Anatabine Concentration in rat plasma, 30 min, individual animals 2A-2D): 34 ng/mL
- concentration at 60 min (female, 0.2 mg/kg, Anatabine Concentration in rat plasma, 60 min, individual animals 2A-2D): 29 ng/mL
- concentration at 475 min (female, 0.2 mg/kg, Anatabine Concentration in rat plasma, 475 min, individual animals 2A-2D): 7 ng/mL
- concentration at 540 min (female, 0.2 mg/kg, Anatabine Concentration in rat plasma, 540 min, individual animals 2A-2D): 24 ng/mL
- concentration at 270 min (female, 2 mg/kg, Anatabine Concentration in rat plasma, 270 min, individual animals 4A-4D): 237 ng/mL
- concentration at 475 min (female, 2 mg/kg, Anatabine Concentration in rat plasma, 475 min, individual animals 4A-4D): 144 ng/mL
- concentration at 720 min (female, 2 mg/kg, Anatabine Concentration in rat plasma, 720 min, individual animals 4A-4D): 186 ng/mL
- Tmax (female, 0.6 mg/kg, female rats, after dose 1, mean, read-out: Tmax(1)): 0.63 h
- Tmax (female, 0.6 mg/kg, female rats, after dose 2, mean, read-out: Tmax(2)): 0.88 h
- Tmax (female, 0.6 mg/kg, female rats, after dose 3, mean, read-out: Tmax(3)): 1.25 h
- half-life (female, 0.6 mg/kg, female rats, after first dose, read-out: t1/2,0→4 (converted)): 2.06 h
- half-life (female, 0.6 mg/kg, female rats, read-out: t1/2, terminal (converted)): 1.8 h
- Tmax (female, 6 mg/kg, female rats, after dose 1, mean, read-out: Tmax(1)): 0.5 h
- Tmax (female, 6 mg/kg, female rats, after dose 2, mean, read-out: Tmax(2)): 0.63 h
- Tmax (female, 6 mg/kg, female rats, after dose 3, mean, read-out: Tmax(3)): 1.25 h
- half-life (female, 6 mg/kg, female rats, after first dose, read-out: t1/2,0→4 (converted)): 1.82 h
- half-life (female, 6 mg/kg, female rats, read-out: t1/2, terminal (converted)): 3.99 h
- half-life (female, both treatment groups combined, female rats, read-out: t1/2,0→4 (converted)): 1.94 h
- Cp, max, initial value (increase from) [1]: 259.8 ± 35.4 ng/mL
- Cp, max, later value (increase to) [1]: 374.8 ± 122.9 ng/mL
- Cp, min, first minimum [1]: 51.5 ± 26.0 ng/mL
- Cp, min(2), second minimum (females, 6.0 mg/kg BW group, anatabine polacrilex p.o., 6 mg/kg): 180 ± 31 ng/mL and 180.0 ± 30.7 ng/mL
- concentration at 300 min (male, 0.2 mg/kg BW, Avg. Conc. of anatabine in plasma, dose group 0.2, male, 300 min): 26 ng/mL
- concentration at 475 min (male, 0.2 mg/kg BW, Avg. Conc. of anatabine in plasma, dose group 0.2, male, 475 min): 18 ng/mL
- concentration at 540 min (male, 0.2 mg/kg BW, Avg. Conc. of anatabine in plasma, dose group 0.2, male, 540 min): 38 ng/mL
- concentration at 600 min (male, 0.2 mg/kg BW, Avg. Conc. of anatabine in plasma, dose group 0.2, male, 600 min): 29 ng/mL
- concentration at 720 min (male, 0.2 mg/kg BW, Avg. Conc. of anatabine in plasma, dose group 0.2, male, 720 min): 12 ng/mL
- concentration at 30 min (male, 0.2 mg/kg, Anatabine Concentration in rat plasma, 30 min, individual animals 1A-1D): 29 ng/mL
- concentration at 60 min (male, 0.2 mg/kg, Anatabine Concentration in rat plasma, 60 min, individual animals 1A-1D): 32 ng/mL
- concentration at 235 min (male, 0.2 mg/kg, Anatabine Concentration in rat plasma, 235 min, individual animals 1A-1D): 11 ng/mL
- concentration at 270 min (male, 0.2 mg/kg, Anatabine Concentration in rat plasma, 270 min, individual animals 1A-1D): 35 ng/mL
- concentration at 300 min (male, 0.2 mg/kg, Anatabine Concentration in rat plasma, 300 min, individual animals 1A-1D): 22 ng/mL
- concentration at 30 min (male, 0.2 mg/kg, Avg. Conc. of anatabine in plasma, dose group 0.2, male, 30 min): 33 ng/mL
- concentration at 60 min (male, 0.2 mg/kg, Avg. Conc. of anatabine in plasma, dose group 0.2, male, 60 min): 30 ng/mL
- concentration at 235 min (male, 0.2 mg/kg, Avg. Conc. of anatabine in plasma, dose group 0.2, male, 235 min): 11 ng/mL
- concentration at 270 min (male, 0.2 mg/kg, Avg. Conc. of anatabine in plasma, dose group 0.2, male, 270 min): 26 ng/mL
- concentration at 30 min (male, 2 mg/kg BW, Avg. Conc. of anatabine in plasma, dose group 2, male, 30 min): 243 ng/mL
- concentration at 235 min (male, 2 mg/kg BW, Avg. Conc. of anatabine in plasma, dose group 2, male, 235 min): 72 ng/mL
- concentration at 270 min (male, 2 mg/kg BW, Avg. Conc. of anatabine in plasma, dose group 2, male, 270 min): 303 ng/mL
- concentration at 300 min (male, 2 mg/kg BW, Avg. Conc. of anatabine in plasma, dose group 2, male, 300 min): 183 ng/mL
- concentration at 475 min (male, 2 mg/kg BW, Avg. Conc. of anatabine in plasma, dose group 2, male, 475 min): 97 ng/mL
- concentration at 540 min (male, 2 mg/kg BW, Avg. Conc. of anatabine in plasma, dose group 2, male, 540 min): 226 ng/mL
- concentration at 600 min (male, 2 mg/kg BW, Avg. Conc. of anatabine in plasma, dose group 2, male, 600 min): 151 ng/mL
- concentration at 720 min (male, 2 mg/kg BW, Avg. Conc. of anatabine in plasma, dose group 2, male, 720 min): 203 ng/mL
- concentration at 475 min (male, 2 mg/kg, Anatabine Concentration in rat plasma, 475 min, individual animals 3A-3D): 79 ng/mL
- concentration at 540 min (male, 2 mg/kg, Anatabine Concentration in rat plasma, 540 min, individual animals 3A-3D): 214 ng/mL
- Tmax (male, 0.6 mg/kg, male rats, after dose 1, mean, read-out: Tmax(1)): 0.75 h
- Tmax (male, 0.6 mg/kg, male rats, after dose 2, mean, read-out: Tmax(2)): 0.63 h
- Tmax (male, 0.6 mg/kg, male rats, after dose 3, mean, read-out: Tmax(3)): 1 h
- half-life (male, 0.6 mg/kg, male rats, after first dose, read-out: t1/2,0→4 (converted)): 2.05 h
- half-life (male, 0.6 mg/kg, male rats, read-out: t1/2, terminal (converted)): 1.78 h
- Tmax (male, 6 mg/kg, male rats, after dose 1, mean, read-out: Tmax(1)): 0.63 h
- Tmax (male, 6 mg/kg, male rats, after dose 2, mean, read-out: Tmax(2)): 0.63 h
- Tmax (male, 6 mg/kg, male rats, after dose 3, mean, read-out: Tmax(3)): 2 h
- half-life (male, 6 mg/kg, male rats, after first dose, read-out: t1/2,0→4 (converted)): 1.76 h
- half-life (male, 6 mg/kg, male rats, read-out: t1/2, terminal (converted)): 5.07 h
- half-life (male, both treatment groups combined, male rats, read-out: t1/2,0→4 (converted)): 1.92 h
